US20220257595A1, “MACITENTAN FOR USE IN TREATING PORTOPULMONARY HYPERTENSION” (ACTELION PHARMACEUTICALS LTD, priority 2019, published 2022)

System: patients with PoPH
Assay: PORTICO safety: liver test and hemoglobin laboratory abnormalities
Assay type: in vivo
Description: For the evaluation of treatment-emergent safety endpoints in the DB phase, the observation period for each individual subject started at the time of the first administration of macitentan or placebo and ended with the start of OL treatment or 30 days after DB treatment discontinuation (whichever occurred first). The safety variables listed below apply to the DB treatment-emergent period and the macitentan treatment-emergent period. The DB treatment-emergent period was defined as the period from the DB treatment start date up to the EOT-DB+30 days or to the EOT-DB for patients entering OL. The macitentan treatment-emergent period was defined as the period from the first intake of macitentan up to end of macitentan treatment (EOMT)+30 days. EOMT was defined as EOT-DB (for patient who received macitentan only in the DB period) or EOT-OL when applicable. For patients entering OLE, the EOMT is EOT-OL. • Treatment-emergent AEs • Treatment-emergent deaths • Treatment-emergent serious adverse events (SAEs) • AEs leading to premature discontinuation of study treatment • Occurrence of post-baseline LFT (ALT and/or AST) abnormalities, classified as: • ≥3×ULN; • ≥5×ULN; • ≥8×ULN; • ≥3×ULN and <5×ULN; • […] and <8×ULN. • Occurrence of post-baseline ALT and/or AST abnormality 3×ULN and concomitant (i.e., at the same time) total bilirubin ≥2×ULN • Occurrence of post-baseline ALT and/or AST abnormality ≥3×ULN and concomitant (i.e., at the same time) total bilirubin ≥2×ULN and increased as compared to baseline • Occurrence of hemoglobin abnormalities, classified as: • ≤80 g/L, • >80 and ≤100 g/L, • decrease from baseline ≥20 g/L and <50 g/L, • decrease from baseline ≥50 g/L, • <100 g/L and concurrent (i.e., at the same time) decrease from baseline ≥20 g/L. • Other treatment-emergent marked laboratory abnormalities • Change from baseline/macitentan baseline to EOT-DB/EOMT in vital signs • Change from baseline/macitentan baseline to EOT-DB/EOMT in laboratory variables • Change from baseline/macitentan baseline to EOT-DB/EOMT in Child-Pugh classification • Change from baseline/macitentan baseline to EOT-DB/EOMT in MELD score
Treatment-emergent liver test and hemoglobin abnormalities are those that occurred during the DB treatment-emergent (SS) and macitentan treatment-emergent (MTS) periods that were not present at baseline.
For post-baseline liver test abnormalities, the following events are considered: • ALT and/or AST ≥3×ULN, • ALT and/or AST ≥5×ULN, • ALT and/or AST ≥8×ULN, • ALT and/or AST ≥3×ULN and <5×ULN, • ALT and/or AST ≥5×ULN and <8×ULN, • ALT and/or AST ≥3×ULN and concomitant (i.e., at the same time) total bilirubin ≥2×ULN. • ALT and/or AST 3×ULN and concomitant (i.e., at the same time) total bilirubin ≥2×ULN and increased as compared to baseline
The highest ALT or AST value at any post-baseline time point of assessment for DB treatment-emergent (SS) and macitentan treatment-emergent (MTS) periods was considered in the evaluation of incidences.
For the occurrence of post-baseline hemoglobin abnormalities, the following events were considered in the evaluation of incidences: • Hemoglobin ≤80 g/L, • Hemoglobin >80 and […], • Hemoglobin decrease from baseline ≥20 g/L and <50 g/L, • Hemoglobin decrease from baseline ≥50 g/L, • Hemoglobin <100 g/L and concurrent (i.e., at the same time) decrease from baseline ≥20 g/L.
The lowest hemoglobin value at any post-baseline time point of assessment for DB treatment-emergent (SS) and macitentan treatment-emergent (MTS) periods was considered in the evaluation of incidences.

[1] = DB phase, Safety set, 10 mg, N = 43, most extreme post-baseline value
[2] = single macitentan-treated patient, DB phase
[3] = single patient, DB+OL phase, malignant ascites and hepatic encephalopathy

Compound: CCCNS(=O)(=O)Nc1ncnc(OCCOc2ncc(Br)cn2)c1-c1ccc(Br)cc1 [macitentan, N-[5-(4-Bromophenyl)-6-[2-[(5-bromo-2-pyrimidinyl)oxy]ethoxy]-4-pyrimidinyl]-N′-propylsulfamide]
- Patients with hemoglobin decreased to ≤80 g/L (DB phase): none
- ALT or AST >= 5*ULN [1]: 0/43
- ALT or AST >= 5*ULN and <8*ULN [1]: 0/43
- ALT or AST >= 8*ULN [1]: 0/43
- Hemoglobin <= 80 g/L [1]: 0/43
- Patients with hemoglobin decreased to ≤100 g/L (DB phase, macitentan group): 3 patients
- Patients with hemoglobin decreases of ≥20 g/L (DB phase, macitentan group (12 patients)): 27.9%
- Patients with aminotransferase increase to >3×ULN (DB phase, macitentan-treated): 1 patient
- ALT or AST >= 5*ULN and <8*ULN (macitentan DB + OL phase, Macitentan treated set, N = 84): 0/84
- Patients with aminotransferase increase to >3×ULN (macitentan DB+OL phase): 2 patients
- Patients with hemoglobin decrease of ≥50 g/L (macitentan DB+OL phase): 6 patients
- Patients with hemoglobin decreased to ≤80 g/L (macitentan DB+OL phase): 4 patients
- Patients with hemoglobin decreased to ≤100 g/L (macitentan DB+OL phase): 13 patients
- Patients with hemoglobin decreases of ≥20 g/L (macitentan DB+OL phase (31 patients)): 37.3%
- ALT in the patient with aminotransferase increase [2]: 3.1 ×ULN
- AST in the patient with aminotransferase increase [2]: 3.2 ×ULN
- Bilirubin in the patient with aminotransferase increase [2]: 2.7 ×ULN
- ALT in the additional patient with aminotransferase increase [3]: 3.6 ×ULN
- AST in the additional patient with aminotransferase increase [3]: 8.6 ×ULN
- Bilirubin in the additional patient with aminotransferase increase [3]: 11.1 ×ULN
- Macitentan-treated patients with Hy's Law range liver test abnormalities (whole study): 2 patients
